Reference: patent US6207677A, “Piperidine derivatives having anxiolytic effect” (H. Lundbeck A/S, priority 1991, dated 2001)

Molecular target: sigma receptors
Assay: Inhibition of 3H-DTG binding to sigma receptors in rat brain in vitro
Conditions: 2 nM 3H-DTG, rat brain without cerebellum, 25° C., 20 min
Description: INHIBITION OF 3H-DTG BINDING TO SIGMA RECEPTORS IN RAT BRAIN IN VITRO
By this method the inhibition by drugs of the binding of 2 nM ^3 H-DTG (1,3,di-o-tolyl guanidine) to sigma receptors in homogenates or membranes from rat brain without cerebellum is determined in vitro as modified from Weber et al. Proc. Natl. Acad. Sci. 1986, 83,8784.
Homogenate: Rats (150-250 g) are decapitated and the brains (without cerebellum) quickly removed and placed on ice, weighed and homogenized in 100 vol ice-cold (0° C.) 50 mM Tris-buffer (pH 7.7) in an ethanol rinsed glass/teflon homogenizer at 0° C. and kept on ice until use.
P2-membranes: Brains are homogenized in 10 vol 0.32 M sucrose in an ethanol rinsed glass/teflon homogenizer with 10 strokes up and down. The homogenate is centrifuged for 10 min at 900×gm at 4° C. The supernatant is decanted and centrifuged for 20 min at 50,000 gm at 4° C. The resulting pellet is resuspended in 10 vol ice-cold […] Tris-buffer (pH 7.7) and incubated for 30 min. at 37° C. The membrane suspension is then centrifuged for further 20 min. at 50,000 gm at 4° C. The pellet is resuspended in 50 vol. of ice-cold Tris-buffer and used immediately.
0.5 ml 50 mM Tris-buffer (pH 7.7), 0.25 ml displacer (6×100 μM DTG, 6× [test compound], or Tris-buffer), and 0.25 ml 6×2 nM. ^3 H-DTG are mixed into 5 ml s plastic test tubes and kept at 4° C. until use. The binding reaction is initiated by mixing 0.5 ml tissue suspension into this solution and incubate at 25° C. for 20 min. Glass fiber filters (Whatman GF/B) are placed on the filter machine which is then closed tightly. Just before filtration vacuum is applied, and the filters washed with 0.1% PEI solution from a spray bottle followed by one wash with Tris-buffer.
The binding reaction is stopped by filtration of the assay mixture at reduced pressure (750 mbar) followed by further 3 washes with 5 ml ice-cold Tris-buffer. The filters are then placed in counting vials and 4 ml scintillation solution added. The vials are counted in a Beckmann scintillation counter.
50 mM Tris-buffer pH 7.7: 7.38 g Trizma--7.7 plus distilled H2 O ad 1 liter. 100 ml 10% polyethylenimine (PEI): 100 ml dest. H2 O is added to approx. 20 g 50% PEI which is solubilized by stirring and heating. Diluted (1+99) before use. 6×2 nM ^3 H-DTG: The exact volume depends on the actual concentration of the batch, but is made as close as possible to 12 nM. The containers for the radioactive solution is rinsed in 96% ethanol before use.
^3 H-DTG was obtained from NEN Research Products, Du Pont Denmark. Specific activity 62.3 Ci/mmol.
The known sigma receptor ligands BMY 14802 and rimcazole were included in the test for comparison purposes.

Row | SMILES | IC50 [nM]
1 | CCCN1CCC2(CC1)OCc1ccccc12 [Compound 4a, 1'-Propyl-spiro[isobenzofuran-1(3H),4'-piperidine]] | 23
2 | c1ccc(CCCCN2CCC3(CCCc4ccccc43)CC2)cc1 [Compound 2e, 3,4-Dihydro-1'-(4-phenyl-1-butyl)spiro[naphtalene-1(2H),4'-piperidine]] | 1.2
3 | O=C1N(CCN2CCC3(CC2)OCc2ccccc23)CCN1C1CCCCC1 [Compound 3d, 1'-(2-(3-Cyclohexylimidazolidin-2-on-1-yl)-1-ethyl)spiro[isobenzofuran-1(3H),4'-piperidine)] | 7.3
4 | Fc1ccc(-n2cc(OCCCN3CCC4(CC3)OCc3ccccc34)c3cc(Cl)ccc32)cc1 [Compound 8c] | 0.66
5 | c1ccc2c(c1)CCC2CCCCN1CCC2(CC1)OCc1ccccc12 (stereo not shown) [Compound 28, 1'-[4-(Indan-1-yl)-1-butyl]-spiro(isobenzofuran-1(3H),4'-piperidine]] | 0.15
6 | c1ccc(CCCCN2CCC3(CC2)OCc2ccccc23)cc1 [Compound 2a, 1'-(4-Phenyl-1-butyl)spiro[isobenzofuran-1(3H),4'-piperidine]] | 0.25
7 | CC(=O)n1cc(CCCCN2CCC3(CC2)OCc2ccccc23)c2ccccc21 [Compound 7, 1'-(4-(1-Acetyl-3-indolyl)-1-butyl)spiro[isobenzofuran-1 (3H),4'-piperidine]] | 0.21
8 | Fc1ccc(C2CCN(CCCCCCc3c[nH]c4ccccc34)CC2)cc1 [Compound 2ff, 3-[6-(4-(4-Fluorophenyl)-1-piperidinyl)-1-hexyl]indole] | 0.43
9 | OC(CCCN1CCC2(CC1)OCc1ccccc12)C1CCCCC1 (stereo not shown) [Compound 26c, 1'-(4-Cyclohexyl-4-hydroxy-1-butyl)spiro[isobenzofuran-1(3h),4'-piperidine]] | 0.14
10 | Fc1ccc2c(c1)C(CCCCN1CCC3(CC1)OCc1ccccc13)CO2 (stereo not shown) [Compound 12, 1'-(4-(2,3-Dihydro-5-fluoro-benzofuran-3-yl)-1-butyl]-spiro[isobenzofuran-1(3H),4'-piperidine]] | 0.3
11 | O=C1N(CCN2CCC3(CC2)OCc2ccccc23)CCN1c1ccccc1 [Compound 3b] | 4.8
12 | O=C1N(CCCCN2CCC3(CC2)OCc2ccccc23)CCN1C1CCCCC1 [Compound 3a, 1'-(4-(3-Cyclohexylimidazolidin-2-on-1-yl)-1-butyl)spiro[isobenzofuran-1 (3H), 4'-piperidine]] | 2.2
13 | c1ccc2c(c1)OC1(CCN(CCCCc3c[nH]c4ccccc34)CC1)O2 [Compound 25b, 1'-[4-(3-Indolyl)-1-butyl]-spiro[1.3-benzodioxole-2,4'-piperidine]] | 36
14 | Fc1ccc(C2CC3CCC(C2)N3CCCCc2noc3ccccc23)cc1 (stereo not shown) [Compound 24] | 1.9
15 | c1ccc(C2CCN(CCCCc3c[nH]c4ccccc34)CC2)cc1 [Compound 2cc, 3-[4-(4-Phenyl-1-piperidyl)-1-butyl]indole] | 1.1
16 | c1ccc(OCCCN2CCC3(CC2)OCc2ccccc23)cc1 [Compound 2k, 1'-(3-Phenoxy-1-propyl)spiro[isobenzofuran-1(3H),4'-piperidine]] | 0.19
17 | Cc1ccc2scc(CCCCN3CCC4(CC3)OCc3ccccc34)c2c1 [Compound 10c, 1'-(4-(5-Methylbenzo[b]thiophen-3-yl)-1-butyl)spiro[isobenzofuran-1(3H),4'-piperidine]] | 0.35

Row | SMILES | IC50 [nM]
18 | c1ccc2c(c1)COC21CCN(CCCSc2csc3ccccc23)CC1 [Compound 31a] | 0.23
19 | Fc1ccc(N2CC(CCCCN3CCC4(CC3)OCc3ccccc34)c3ccccc32)cc1 (stereo not shown) [Compound 30, 1'-(4-(2,3-Dihydro-1-(4-fluorophenyl)-3-indolyl)-1-butyl)spiro[isobenzofuran-1(3H),4'-piperidine]] | 0.07
20 | O=S(=O)(CCCN1CCC2(CC1)OCc1ccccc12)c1ccccc1 [Compound 2s, 1'-(3-Phenylsulfonyl-1-propyl)spiro[isobenzofuran-1 (3H),4'-piperidine]] | 3.1
21 | c1ccc2c(c1)COCC21CCN(CCCCc2c[nH]c3ccccc23)CC1 [Compound 2v, 1'-[4-(3-Indolyl)-1-butyl]-spiro[1H-2-benzopyran-4(3H),4'-piperidine]] | 1.8
22 | CS(=O)(=O)n1cc(CCCCN2CCC3(CC2)OCc2ccccc23)c2ccccc21 [Compound 6a, 1'-(4-(1-Methanesulfonyl-3-indolyl)-1-butyl)spiro[isobenzofuran-1(3 H),4'-piperidine]] | 0.05
23 | c1ccc2c(c1)COC21CCN(CCCCc2c[nH]c3ccccc23)CC1 [Compound 2u, 1'-[4-(3-Indolyl)-1-butyl]-spiro[isobenzofuran-1(3H),4'-piperidine]] | 0.41
24 | Fc1ccc(C2CCN(CCCCc3cn(-c4ccccc4)c4ccccc34)CC2)cc1 [Compound 9p, 1-Phenyl-3-[4-(4-(4-fluorophenyl)-1-piperidyl)-1-butyl]indole] | 0.28
25 | Fc1ccc(-n2cc(OCCCN3CCC4(CC3)OCc3ccccc34)c3ccccc32)cc1 [Compound 8a, 1'-[3-[1-(4-Fluorophenyl)-3-indolyloxy]-1-propyl]spiro[isobenzofuran-1(3H),4'-piperidine]] | 0.21
26 | Fc1ccc(-n2cc(CCCCN3CCC4(CC3)SCc3ccccc34)c3ccccc32)cc1 [Compound 9c, 1'-[4-[1-(4-Fluorophenyl)-3-indolyl]-1-butyl]spiro[benzo[c]thiophene-1(3H),4'-piperidine]] | 0.14
27 | Fc1ccc(C2CCN(CCCCc3noc4ccccc34)CC2)cc1 [Compound 19b, 3-[4-(4-(4-Fluorophenyl)-1-piperidyl)-1-butyl]-1,2-benzisoxazole] | 0.49
28 | c1ccc2c(c1)COC21CCN(CCCOc2csc3ccccc23)CC1 [Compound 34, 1'-[3-(Benzo[b]thiophen-3-yloxy)-1-propyl]spiro[isobenzofuran-1(3H),4'-piperidine]] | 0.27
29 | c1ccc2c(c1)COC1(CCN(CCCCc3noc4ccccc34)CC1)C2 [Compound 19c, 1-(4-(1,2-Benzisoxazol-3-yl)-1-butyl)spiro[3H-2-benzopyran-3,4'-piperidine]] | 0.84
30 | c1ccc2c(c1)COC21CCN(CCCCC2CNc3ccccc32)CC1 (stereo not shown) [Compound 13b, 1'-[4-(2,3-Dihydro-3-indolyl)-1-butyl]spiro[isobenzofuran-1(3H),4'-piperidine]] | 1
31 | Fc1ccc(-n2nc(CCCCN3CCC4(CC3)OCc3ccccc34)c3cc(C(F)(F)F)ccc32)cc1 [Compound 17a, 1'-[4-[1-(4-Fluorophenyl)-5-trifluoromethylindazol-3-yl]-1-butyl]spiro[isobenzofuran-1(3H),4'-piperidine]] | 0.11
32 | Fc1ccc(-n2cc(OCCN3CCC4(CC3)OCc3ccccc34)c3cc(Cl)ccc32)cc1 [Compound 14a, 1'-[2-[5-Chloro-1-(4-fluorophenyl)-3-indolyloxy]-1-ethyl]spiro[isobenzofuran-1(3H)piperidine]] | 24
33 | c1ccc2c(c1)COC21CCN(CCCCc2noc3ccccc23)CC1 [Compound 19a, 1'-(4-(1,2-Benzisoxazol-3-yl)-1-butyl)spiro[isobenzofuran-1(3H) ,4'-piperidine]] | 0.08
34 | c1ccc(CCCCN2CCC3(CCc4ccccc43)CC2)cc1 [Compound 2c, 2,3-Dihydro-1'-(4-phenyl-1-butyl)spiro[1H-indene-1,4'-piperidine]] | 0.51
